pIC50: −log10 of the molar value.
How the values were obtained:
Assay in all cases: Kinase profiling with recombinant enzyme, 33P-ATP filter-binding method
Assay type in all cases: biochemical
PDGFRα D842V = PDGFRα D842V (Homo sapiens (Human), UniProt P16234, D842V); settings: poly[Glu:Tyr] (4:1), ATP (Km) 1 uM, read-out: INH-PDGFRα D842V (exon 18) IC50
Protocol: (§1) KIT, KIT mutant, and PDGFRα mutant kinase profiling was performed with recombinant enzymes including wild-type KIT, KIT V560G, KIT V559D/T670I, V559D/V654A, and PDGFRα D842V. Kinase/substrate pairs were prepared in reaction buffer (20 mM Hepes (pH 7.5), 10 mM MgCl2, 1 mM EGTA, 0.02% Brij35, 0.02 mg/ml BSA, 0.1 mM Na3VO4, 2 mM DTT, 1% DMSO). Compounds were dissolved at 10 mM in 100% DMSO, serial diluted and added to the kinase/substrate mix in final concentrations from 10 uM to 0.5 pM. Compounds were incubated with the recombinant enzymes and substrates at room temperature for 20 minutes with their respective Km for ATP. ^33P-ATP (10 mCi/mL) was added to initiate the reaction. Incubation for two hours at room temperature was followed by spotting onto P81 ion exchange paper and detection of kinase activity by a filter-binding method.
(§2) Conditions for Specific Enzyme Assays:
(§3) Data was normalized to 0% and 100% inhibition controls and the IC50 calculated using a 4-parameter curve fit.

KIT V559D/T670I = KIT V559D/T670I (Homo sapiens (Human), UniProt P10721, T670I/V559D); settings: c-KIT V559D/T670I, poly[Glu:Tyr] (4:1), ATP (Km) 5 uM; read-out: INH-KITV559D/T670I (exon 13) IC50
Chain of KIT V559D/T670I (P10721 26-976 V559D/T670I): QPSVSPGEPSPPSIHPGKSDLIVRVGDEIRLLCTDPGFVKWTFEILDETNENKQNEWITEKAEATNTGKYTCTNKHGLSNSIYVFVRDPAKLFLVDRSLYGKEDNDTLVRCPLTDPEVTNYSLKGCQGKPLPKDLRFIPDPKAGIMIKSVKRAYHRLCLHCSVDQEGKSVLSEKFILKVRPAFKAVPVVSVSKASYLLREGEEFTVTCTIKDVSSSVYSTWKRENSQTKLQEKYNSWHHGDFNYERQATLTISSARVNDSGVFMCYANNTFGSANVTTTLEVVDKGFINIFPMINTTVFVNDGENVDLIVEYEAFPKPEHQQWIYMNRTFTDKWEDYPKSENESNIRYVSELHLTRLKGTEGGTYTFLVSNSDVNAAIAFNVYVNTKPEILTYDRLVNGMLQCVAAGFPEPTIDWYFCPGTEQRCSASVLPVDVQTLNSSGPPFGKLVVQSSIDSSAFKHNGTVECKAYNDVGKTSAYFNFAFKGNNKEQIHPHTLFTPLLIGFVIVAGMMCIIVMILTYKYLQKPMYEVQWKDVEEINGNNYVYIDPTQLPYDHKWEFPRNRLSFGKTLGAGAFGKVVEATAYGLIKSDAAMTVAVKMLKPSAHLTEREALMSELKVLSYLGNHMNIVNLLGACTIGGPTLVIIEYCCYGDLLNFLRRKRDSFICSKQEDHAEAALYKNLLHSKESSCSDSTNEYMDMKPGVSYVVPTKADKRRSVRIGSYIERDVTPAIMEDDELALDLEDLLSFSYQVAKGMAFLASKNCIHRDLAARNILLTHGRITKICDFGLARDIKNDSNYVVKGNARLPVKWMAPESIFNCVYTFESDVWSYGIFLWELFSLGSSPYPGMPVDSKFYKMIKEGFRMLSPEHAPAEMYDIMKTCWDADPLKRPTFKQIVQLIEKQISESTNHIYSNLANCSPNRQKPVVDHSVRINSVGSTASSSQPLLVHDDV
Protocol: as §1, §2, §3

KIT V559D/V654A = KIT V559D/V654A (Homo sapiens (Human), UniProt P10721, V559D/V654A); settings: c-KIT V559D/V654A, poly[Glu:Tyr] (4:1), ATP (Km) 20 uM; read-out: INH-KITV559D/V654A (exon 13) IC50
Chain of KIT V559D/V654A (P10721 26-976 V559D/V654A): as the sequence (P10721 26-976 V559D/T670I) above, with V629A, I645T counted along it
Protocol: as §1, §2, §3

wild-type KIT = wild-type KIT (Homo sapiens (Human), UniProt P10721); settings: c-KIT WT, poly[Glu:Tyr] (4:1), ATP (Km) 100 uM; read-out: INH-KITWT IC50
Chain of wild-type KIT (P10721 26-976): as the sequence (P10721 26-976 V559D/T670I) above, with D534V, I645T counted along it
Protocol: as §1, §2, §3

KIT V560G = KIT V560G (Homo sapiens (Human), UniProt P10721, V560G); settings: c-KIT V560G, poly[Glu:Tyr] (4:1), ATP (Km) 20 uM; read-out: INH-KITV560G (exon 11) IC50
Chain of KIT V560G (P10721 26-976 V560G): as the sequence (P10721 26-976 V559D/T670I) above, with D534V, V535G, I645T counted along it
Protocol: as §1, §2, §3

Chain of PDGFRα D842V (P16234 24-1089 D842V): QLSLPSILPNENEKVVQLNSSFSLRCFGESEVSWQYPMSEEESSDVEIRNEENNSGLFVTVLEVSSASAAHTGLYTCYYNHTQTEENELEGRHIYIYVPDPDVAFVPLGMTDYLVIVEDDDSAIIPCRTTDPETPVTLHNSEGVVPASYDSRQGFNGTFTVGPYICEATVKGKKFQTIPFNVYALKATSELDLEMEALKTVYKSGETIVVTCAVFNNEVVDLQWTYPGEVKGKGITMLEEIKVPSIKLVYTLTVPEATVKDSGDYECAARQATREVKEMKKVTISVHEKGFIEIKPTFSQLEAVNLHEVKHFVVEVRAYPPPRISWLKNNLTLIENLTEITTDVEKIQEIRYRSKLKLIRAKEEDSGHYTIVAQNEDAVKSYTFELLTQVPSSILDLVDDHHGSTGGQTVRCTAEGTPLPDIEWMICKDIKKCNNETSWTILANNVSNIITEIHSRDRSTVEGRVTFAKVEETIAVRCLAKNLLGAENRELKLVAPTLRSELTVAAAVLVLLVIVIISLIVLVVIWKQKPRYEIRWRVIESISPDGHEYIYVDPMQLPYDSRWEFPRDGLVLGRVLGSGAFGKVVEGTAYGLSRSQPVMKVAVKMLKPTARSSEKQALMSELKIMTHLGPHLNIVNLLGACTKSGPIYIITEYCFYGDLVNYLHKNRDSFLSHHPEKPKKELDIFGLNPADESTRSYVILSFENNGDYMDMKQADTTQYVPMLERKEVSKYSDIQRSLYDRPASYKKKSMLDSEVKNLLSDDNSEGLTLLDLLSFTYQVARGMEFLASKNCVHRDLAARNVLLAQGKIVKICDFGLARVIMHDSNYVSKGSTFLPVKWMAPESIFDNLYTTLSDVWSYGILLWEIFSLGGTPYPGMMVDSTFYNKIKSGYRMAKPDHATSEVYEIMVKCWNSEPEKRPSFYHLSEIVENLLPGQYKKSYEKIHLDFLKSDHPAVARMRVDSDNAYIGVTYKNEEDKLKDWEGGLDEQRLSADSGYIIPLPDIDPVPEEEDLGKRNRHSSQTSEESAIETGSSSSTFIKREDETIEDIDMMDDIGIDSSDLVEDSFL

| pIC50 (PDGFRα D842V) | pIC50 (KIT V559D/T670I) | pIC50 (KIT V559D/V654A) | pIC50 (wild-type KIT) | pIC50 (KIT V560G) | SMILES |
| --- | --- | --- | --- | --- | --- |
| > 9.00 | 8.00 to 9.00 | < 7.00 | < 7.00 | 7.00 to 8.00 | Cn1cc(-c2cc3c(N4CCN(c5ncc([C@@](C)(N)c6ccc(F)cc6)cn5)CC4)c(Cl)cnn3c2)cn1 [Compound 3, (S)-1-(2-(4-(3-chloro-6-(1-methyl-1H-pyrazol-4-yl)pyrrolo[1,2-b]pyridazin-4-yl)piperazin-1-yl)pyrimidin-5-yl)-1-(4-fluorophenyl)ethanamine] |
| > 9.00 | 8.00 to 9.00 | 8.00 to 9.00 | < 7.00 | 8.00 to 9.00 | Cn1cc(-c2cc3c(N4CCN(c5ncc([C@@](C)(N)c6ccc(F)cc6)cn5)CC4)ccnn3c2)cn1 [Compound 1, (S)-1-(4-fluorophenyl)-1-(2-(4-(6-(1-methyl-1H-pyrazol-4-yl)pyrrolo[1,2-b]pyridazin-4-yl)piperazin-1-yl)pyrimidin-5-yl)ethanamine] |
| > 9.00 | 8.00 to 9.00 | 7.00 to 8.00 | < 7.00 | 8.00 to 9.00 | Cn1cc(-c2cc3c(N4CCN(c5ncc([C@@](C)(N)c6ccc(F)cc6)cn5)CC4)c(C#N)cnn3c2)cn1 [Compound 4, (S)-4-(4-(5-(1-amino-1-(4-fluorophenyl)ethyl)pyrimidin-2-yl)piperazin-1-yl)-6-(1-methyl-1H-pyrazol-4-yl)pyrrolo[1,2-b]pyridazine-3-carbonitrile] |
| > 9.00 | 8.00 to 9.00 | 7.00 to 8.00 | < 7.00 | 7.00 to 8.00 | Cn1cc(-c2cc3c(N4CCN(c5ncc([C@@](C)(N)c6ccc(F)cc6)cn5)CC4)c(F)cnn3c2)cn1 [Compound 2, (S)-1-(2-(4-(3-fluoro-6-(1-methyl-11H-pyrazol-4-yl)pyrrolo[1,2-b]pyridazin-4-yl)piperazin-1-yl)pyrimidin-5-yl)-1-(4-fluorophenyl)ethanamine] |

— US11040979B2, “Substituted pyrrolo[1,2-b]pyridazines for treating disorders related to KIT and PDGFR” (Blueprint Medicines Corporation, priority 2017, dated 2021)
